Laboratory results as given in patent US10517889B2, “Modulators of SMAD7 expression” (Ionis Pharmaceuticals, Inc., priority 2017, dated 2019).
Strand notation (5' to 3'): a small letter for the sugar, then the base; units joined by * are phosphorothioate-linked, units joined directly phosphodiester-linked; [ ] holds rarer units or linkages, { } end groups; capitals alone tell only the bases. k = constrained ethyl (cEt); [5mC] = 5-methylcytosine; d = 2'-deoxy (DNA)

Columns and labels:
[1] = system: human SMAD7 mRNA; assay: Antisense inhibition of human SMAD7 mRNA expression in Hep3B cells by 3-10-3 cEt gapmers, 10,000 nM, electroporation (Example 2); assay type: cell-based; settings: Hep3B cells, electroporation with 10,000 nM antisense oligonucleotide, approximately 24 hours, SMAD7 mRNA by RT-PCR (RTS5062), relative to untreated control cells
Summary of the method: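 Hep3B cells (20,000 per well) were electroporated with 10,000 nM 16-mer 3-10-3 cEt gapmer (phosphorothioate, 5-methylcytosine). After about 24 h, SMAD7 mRNA was quantified by qRT-PCR with primer probe set RTS5062, normalised to RIBOGREEN total RNA, and expressed as percent inhibition versus untreated cells.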

[2] = system: human SMAD7 mRNA; assay: Dose-dependent inhibition of human SMAD7 mRNA expression in Hep3B cells (Example 3, Study 1 and 2); assay type: cell-based; settings: electroporation; for % inhibition of SMAD7 mRNA expression: approximately 16 hours; for IC50: Study 2 (740-20000 nM)
Summary of the method: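 Hep3B cells, 20,000 per well, electroporated with antisense oligonucleotide at 0.31, 1.25, 5.00 or 20.00 μM (first series) or 0.74, 2.22, 6.67 or 20.00 μM (second series). After ~16 h, SMAD7 mRNA measured by RT-qPCR (RTS5062), normalised to RIBOGREEN total RNA. Percent inhibition vs untreated cells; IC50 derived.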

[3] = 740 nM, Study 2, relative to untreated control cells

Substance	% Inhibition [1]	% inhibition of SMAD7 mRNA expression [2, 3]	% inhibition of SMAD7 mRNA expression ([2]; 2220 nM, Study 2)	% inhibition of SMAD7 mRNA expression ([2]; 6670.0 nM, Study 2)	% inhibition of SMAD7 mRNA expression ([2]; 20000.0 nM, Study 2)	IC50 [2]
830028 (antisense k[5mC]*kA*kG*dT*d[5mC]*dA*dA*dG*dT*dT*dA*d[5mC]*dA*kG*kT*k[5mC]) [compound 830028]	75%	54%	70%	85%	93%	3000 nM
830044 (k[5mC]*kG*kA*dT*dT*dG*dG*d[5mC]*dA*dG*dG*dT*dT*kA*kA*kT; antisense) [compound 830044]	60%	47%	61%	80%	93%	10000 nM
830051 (kT*kA*kG*dT*dT*dT*d[5mC]*d[5mC]*dG*dA*dT*dT*dG*kG*k[5mC]*kA; antisense) [compound 830051]	84%	0%	18%	42%	67%	2000 nM
830053 (kG*kG*kG*dT*dG*dA*dG*dT*dA*dA*d[5mC]*d[5mC]*dA*kG*k[5mC]*kT; antisense) [compound 830053]	68%	29%	56%	79%	87%	2000 nM
830067 (kG*kA*kA*dA*dT*dG*dG*dT*dG*d[5mC]*dT*d[5mC]*dT*kG*k[5mC]*k[5mC]; antisense) [compound 830067]	63%	23%	59%	80%	88%	10000 nM
830095 (kT*kG*kA*dG*dT*dA*dA*dA*d[5mC]*dA*dA*dT*dA*k[5mC]*k[5mC]*k[5mC]; antisense) [compound 830095]	73%	3%	37%	42%	60%	2000 nM
830097 (k[5mC]*k[5mC]*kA*dT*d[5mC]*dT*dA*dA*d[5mC]*dA*dA*d[5mC]*dA*kT*k[5mC]*k[5mC]; antisense) [compound 830097]	68%	29%	60%	78%	86%	1000 nM
830099 (kG*k[5mC]*k[5mC]*dT*dT*dT*dG*dG*dA*dA*dT*dT*dA*kG*kT*kA; antisense) [compound 830099]	79%	42%	56%	70%	92%	10000 nM
830100 (kG*kG*kA*dG*d[5mC]*dT*d[5mC]*dA*dA*dA*d[5mC]*dT*dT*kT*kG*kA; antisense) [compound 830100]	61%	3%	8%	38%	69%	2000 nM
830122 (kG*kA*kG*dA*dA*dT*d[5mC]*dA*dA*dG*d[5mC]*d[5mC]*d[5mC]*kT*kG*kG; antisense) [compound 830122]	57%	28%	54%	66%	74%	3000 nM
830128 (antisense kA*k[5mC]*k[5mC]*dT*d[5mC]*d[5mC]*dG*dA*dG*dG*d[5mC]*dA*d[5mC]*k[5mC]*kA*k[5mC]) [compound 830128]	87%	20%	55%	74%	85%	3000 nM
830131 (antisense k[5mC]*k[5mC]*k[5mC]*dA*d[5mC]*d[5mC]*dT*d[5mC]*d[5mC]*dG*dA*dG*dG*k[5mC]*kA*k[5mC]) [compound 830131]	68%	34%	48%	51%	61%	5000 nM
830135 (antisense kA*kA*kG*dT*dA*d[5mC]*dA*dA*dT*d[5mC]*dT*d[5mC]*d[5mC]*kT*kG*kG) [compound 830135]	64%	16%	44%	56%	71%	5000 nM
830137 (antisense kA*kT*kG*dA*dA*dA*dG*dT*dA*d[5mC]*dA*dA*dT*k[5mC]*kT*k[5mC]) [compound 830137]	68%	19%	46%	63%	84%	3000 nM
830138 (antisense kG*kG*kA*dG*dT*dT*dG*d[5mC]*dA*dT*dG*d[5mC]*d[5mC]*kT*kT*kT) [compound 830138]	71%	0%	40%	61%	87%	5000 nM
830142 (antisense kT*kG*kT*dG*d[5mC]*dA*d[5mC]*d[5mC]*dA*dG*dG*dT*dG*kA*kG*k[5mC]) [compound 830142]	60%	13%	37%	32%	49%	> 20000 nM
830144 (antisense kG*kG*kG*dT*dG*dT*dG*d[5mC]*dA*d[5mC]*d[5mC]*dA*dG*kG*kT*kG) [compound 830144]	66%	47%	68%	85%	96%	1000 nM
830157 (antisense kG*kA*kA*d[5mC]*dT*dG*dT*dG*d[5mC]*d[5mC]*dT*d[5mC]*dA*kG*k[5mC]*kA) [compound 830157]	70%	24%	50%	73%	81%	3000 nM
830163 (antisense k[5mC]*kA*kA*d[5mC]*dT*dG*dA*dA*dG*dG*dT*dG*dA*k[5mC]*k[5mC]*k[5mC]) [compound 830163]	60%	33%	49%	73%	84%	2000 nM
830168 (antisense kA*kT*kG*d[5mC]*dT*dT*dT*dT*dA*d[5mC]*dA*d[5mC]*dA*k[5mC]*k[5mC]*k[5mC]) [compound 830168]	81%	31%	46%	65%	73%	3000 nM
830170 (antisense kG*k[5mC]*kT*d[5mC]*dT*dG*dT*dT*dT*dG*dG*dA*d[5mC]*kA*kA*kG) [compound 830170]	60%	1%	39%	54%	67%	6000 nM
830180 (antisense k[5mC]*kG*kT*dG*dT*dA*d[5mC]*d[5mC]*d[5mC]*dA*dG*d[5mC]*dT*kG*k[5mC]*k[5mC]) [compound 830180]	62%	21%	39%	43%	64%	8000 nM
830207 (kA*kG*kG*dT*dG*dA*d[5mC]*dT*d[5mC]*dA*dT*d[5mC]*dA*kG*kG*k[5mC]; antisense) [compound 830207]	80%	49%	74%	85%	93%	1000 nM
830208 (kA*kA*kG*dG*dT*dG*dA*d[5mC]*dT*d[5mC]*dA*dT*d[5mC]*kA*kG*kG; antisense) [compound 830208]	57%	38%	70%	79%	90%	1000 nM
